Test results published in the NIST ThermoML archive (doi:10.1016/j.jct.2017.07.012).
± gives the expanded uncertainty stated by the source.

Key:
[1] = activity coefficient (dimensionless); of the first substance listed, at infinite dilution; xn = mol fraction of the nth substance listed; conditions: 101.33 kPa, Liquid, Chromatography, x1 = 0
[2] = 101.33 kPa, Liquid, Vibrating tube method

SMILES	activity coefficient ([1]; 323.15 K)	activity coefficient ([1]; 333.15 K)	activity coefficient ([1]; 343.15 K)	activity coefficient ([1]; 353.15 K)	mass density ([2]; 303.15 K)	mass density ([2]; 313.15 K)	mass density ([2]; 323.15 K)	mass density ([2]; 333.15 K)	mass density ([2]; 343.15 K)	mass density ([2]; 353.15 K)	activity coefficient ([1]; 303.15 K)	activity coefficient ([1]; 313.15 K)
Cc1ccccc1C [1,2-dimethylbenzene] + CCCCn1cc[n+](C)c1.[O-][Cl+3]([O-])([O-])[O-]	4.09 ± 0.43	4.16 ± 0.44	4.27 ± 0.45	4.37 ± 0.46								
Cc1cccc(C)c1 [1,3-dimethylbenzene] + CCCCn1cc[n+](C)c1.[O-][Cl+3]([O-])([O-])[O-]	4.99 ± 0.52	5.08 ± 0.53	5.28 ± 0.55	5.36 ± 0.56								
Cc1ccc(C)cc1 [1,4-dimethylbenzene] + CCCCn1cc[n+](C)c1.[O-][Cl+3]([O-])([O-])[O-]	4.82 ± 0.51	4.91 ± 0.52	5.13 ± 0.54	5.21 ± 0.55								
C1COCCO1 [1,4-dioxane] + CCCCn1cc[n+](C)c1.[O-][Cl+3]([O-])([O-])[O-]	1 ± 0.1	1.02 ± 0.1	1.1 ± 0.11	1.14 ± 0.12								
CCCCn1cc[n+](C)c1.[O-][Cl+3]([O-])([O-])[O-] [1-butyl-3-methylimidazolium perchlorate]					1247.87 ± 2.4 kg/m3	1240.83 ± 2.4 kg/m3	1233.88 ± 2.4 kg/m3	1227.01 ± 2.4 kg/m3	1220.19 ± 2.4 kg/m3	1213.44 ± 2.4 kg/m3		
CC(C)CC(C)(C)C [2,2,4-trimethylpentane] + CCCCn1cc[n+](C)c1.[O-][Cl+3]([O-])([O-])[O-]	107 ± 11	119 ± 12	122 ± 13	125 ± 13							100 ± 11	102 ± 11
CC(C)CO [2-methyl-1-propanol] + CCCCn1cc[n+](C)c1.[O-][Cl+3]([O-])([O-])[O-]	2.9 ± 0.3	2.67 ± 0.28	2.48 ± 0.26	2.32 ± 0.24								
CC(C)CCO [3-methylbutan-1-ol] + CCCCn1cc[n+](C)c1.[O-][Cl+3]([O-])([O-])[O-]		3.49 ± 0.37	3.21 ± 0.34	2.97 ± 0.31								
CC(C)=O [acetone] + CCCCn1cc[n+](C)c1.[O-][Cl+3]([O-])([O-])[O-]	0.94 ± 0.1	0.98 ± 0.1	1.05 ± 0.11	1.08 ± 0.11							0.84 ± 0.09	0.91 ± 0.09
CC#N [acetonitrile] + CCCCn1cc[n+](C)c1.[O-][Cl+3]([O-])([O-])[O-]	0.63 ± 0.07	0.65 ± 0.07	0.67 ± 0.07	0.69 ± 0.07							0.61 ± 0.07	0.62 ± 0.07
c1ccccc1 [benzene] + CCCCn1cc[n+](C)c1.[O-][Cl+3]([O-])([O-])[O-]	1.97 ± 0.21	2 ± 0.21	2.08 ± 0.22	2.17 ± 0.23							1.78 ± 0.19	1.82 ± 0.19
CCCCO [butan-1-ol] + CCCCn1cc[n+](C)c1.[O-][Cl+3]([O-])([O-])[O-]		2.73 ± 0.29	2.49 ± 0.26	2.39 ± 0.25								
CCC(C)O (centres undefined) [butan-2-ol] + CCCCn1cc[n+](C)c1.[O-][Cl+3]([O-])([O-])[O-]	2.66 ± 0.28	2.61 ± 0.27	2.47 ± 0.26	2.37 ± 0.25								2.91 ± 0.31
C1CCCCC1 [cyclohexane] + CCCCn1cc[n+](C)c1.[O-][Cl+3]([O-])([O-])[O-]	35.2 ± 3.7	35.4 ± 3.7	36.2 ± 3.8	37.5 ± 4							34.5 ± 3.6	34.6 ± 3.6
C1=CCCCC1 [cyclohexene] + CCCCn1cc[n+](C)c1.[O-][Cl+3]([O-])([O-])[O-]	14.7 ± 1.6	14.6 ± 1.5	14.4 ± 1.5	14.2 ± 1.5							15.1 ± 1.6	14.8 ± 1.6
CCCCCCCCCC [decane] + CCCCn1cc[n+](C)c1.[O-][Cl+3]([O-])([O-])[O-]	217 ± 23	204 ± 22	200 ± 21	192 ± 20							226 ± 24	219 ± 23
ClCCl [dichloromethane] + CCCCn1cc[n+](C)c1.[O-][Cl+3]([O-])([O-])[O-]	0.96 ± 0.1	1.01 ± 0.1	1.1 ± 0.11	1.13 ± 0.12							0.84 ± 0.09	0.91 ± 0.09
CCO [ethanol] + CCCCn1cc[n+](C)c1.[O-][Cl+3]([O-])([O-])[O-]	1.59 ± 0.17	1.5 ± 0.16	1.45 ± 0.15	1.44 ± 0.15							1.67 ± 0.17	1.59 ± 0.17

SMILES	activity coefficient ([1]; 323.15 K)	activity coefficient ([1]; 333.15 K)	activity coefficient ([1]; 343.15 K)	activity coefficient ([1]; 353.15 K)	mass density ([2]; 303.15 K)	mass density ([2]; 313.15 K)	mass density ([2]; 323.15 K)	mass density ([2]; 333.15 K)	mass density ([2]; 343.15 K)	mass density ([2]; 353.15 K)	activity coefficient ([1]; 303.15 K)	activity coefficient ([1]; 313.15 K)
CCOC(C)=O [ethyl acetate] + CCCCn1cc[n+](C)c1.[O-][Cl+3]([O-])([O-])[O-]	2.46 ± 0.26	2.54 ± 0.27	2.69 ± 0.28	2.78 ± 0.29							2.22 ± 0.23	2.31 ± 0.24
CCc1ccccc1 [ethylbenzene] + CCCCn1cc[n+](C)c1.[O-][Cl+3]([O-])([O-])[O-]	5.05 ± 0.53	5.11 ± 0.54	5.29 ± 0.56	5.35 ± 0.56								
CCCCCCC [heptane] + CCCCn1cc[n+](C)c1.[O-][Cl+3]([O-])([O-])[O-]	99.1 ± 10	108 ± 11	115 ± 12	121 ± 13							85.9 ± 9.1	91.6 ± 9.7
CCCCCC [hexane] + CCCCn1cc[n+](C)c1.[O-][Cl+3]([O-])([O-])[O-]	98 ± 10	107 ± 11	112 ± 12	118 ± 12							81.7 ± 8.6	89.2 ± 9.4
CO [methanol] + CCCCn1cc[n+](C)c1.[O-][Cl+3]([O-])([O-])[O-]	1.05 ± 0.11	1.02 ± 0.1	1.01 ± 0.1	1 ± 0.1							1.07 ± 0.11	1.06 ± 0.11
CC1CCCCC1 [methylcyclohexane] + CCCCn1cc[n+](C)c1.[O-][Cl+3]([O-])([O-])[O-]	47 ± 5	47.3 ± 5	47.3 ± 5	47.8 ± 5							46.5 ± 4.9	46.7 ± 4.9
CCCCCCCCC [nonane] + CCCCn1cc[n+](C)c1.[O-][Cl+3]([O-])([O-])[O-]	142 ± 15	137 ± 14	135 ± 14	133 ± 14							151 ± 16	142 ± 15
CCCCCCCC [octane] + CCCCn1cc[n+](C)c1.[O-][Cl+3]([O-])([O-])[O-]	119 ± 12	119 ± 13	122 ± 13	127 ± 13							109 ± 12	111 ± 12
CCCCCO [pentan-1-ol] + CCCCn1cc[n+](C)c1.[O-][Cl+3]([O-])([O-])[O-]		3.88 ± 0.41	3.55 ± 0.37	3.23 ± 0.34								
CCCO [propan-1-ol] + CCCCn1cc[n+](C)c1.[O-][Cl+3]([O-])([O-])[O-]	2.05 ± 0.22	1.99 ± 0.21	1.87 ± 0.2	1.82 ± 0.19								
CC(C)O [propan-2-ol] + CCCCn1cc[n+](C)c1.[O-][Cl+3]([O-])([O-])[O-]	2.06 ± 0.22	2.06 ± 0.22	1.93 ± 0.2	1.92 ± 0.2							2.27 ± 0.24	2.18 ± 0.23
C=Cc1ccccc1 [styrene] + CCCCn1cc[n+](C)c1.[O-][Cl+3]([O-])([O-])[O-]		2.29 ± 0.24	2.42 ± 0.25	2.5 ± 0.26								
ClC(Cl)(Cl)Cl [tetrachloromethane] + CCCCn1cc[n+](C)c1.[O-][Cl+3]([O-])([O-])[O-]	4.1 ± 0.43	4.22 ± 0.44	4.6 ± 0.48	4.67 ± 0.49							3.61 ± 0.38	3.93 ± 0.41
C1CCOC1 [tetrahydrofuran] + CCCCn1cc[n+](C)c1.[O-][Cl+3]([O-])([O-])[O-]	1.67 ± 0.17	1.94 ± 0.2	1.94 ± 0.2	2.06 ± 0.22							1.5 ± 0.16	1.57 ± 0.16
Cc1ccccc1 [toluene] + CCCCn1cc[n+](C)c1.[O-][Cl+3]([O-])([O-])[O-]	3.1 ± 0.33	3.14 ± 0.33	3.29 ± 0.35	3.38 ± 0.36								2.96 ± 0.31
ClC(Cl)Cl [trichloromethane] + CCCCn1cc[n+](C)c1.[O-][Cl+3]([O-])([O-])[O-]	0.93 ± 0.09	0.98 ± 0.1	1.1 ± 0.11	1.16 ± 0.12							0.78 ± 0.08	0.87 ± 0.09
O [water] + CCCCn1cc[n+](C)c1.[O-][Cl+3]([O-])([O-])[O-]		1.02 ± 0.1	1.01 ± 0.1	1 ± 0.1								
